How the values were obtained:
Aβ42 [1] = target: T1, Aβ42 (Homo sapiens, UniProt P05067); test: Transmission electron microscopy (TEM/AFM) of Aβ42 aggregate species; type: biochemical
T1 construct: the amyloid-β 1-42 (Aβ42) peptide
Procedure: 2.1.1. Protein aggregation. For aggregation reactions, Aβ42 stock solution (1 mM in DMSO) was diluted in phosphate buffer (100 mM sodium phosphate, 10 mM NaCl, pH 7.4) to 15 µM and incubated in 1.5 ml Eppendorf tubes (Eppendorf, Germany) at 37°C. Generation of soluble Aβ42 oligomers was performed as described (Lambert, 1998). Aβ42 DMSO stock solutions were diluted in Ham's F12 medium without phenol red (Biosource) at a final peptide concentration of 100 µM, with or without test compounds. After brief vortexing, samples were incubated at 4-6°C for 24 h. Alternatively, Aβ42 oligomers were prepared as described in (Ma, 2006) by diluting DMSO stock solution to a final Aβ42 concentration of 110 µM in 10 mM HEPES buffer pH 7.4. Samples were incubated in a glass vial with a micro stir bar at 37°C for 24 h and subsequently centrifuged (Beckman Coulter Microfuge R, rotor F241.5P) at 13,000 rpm.
2.2.2. 04 promotes the assembly of seeding-competent, β-sheet-rich Aβ42 fibrils. To examine the morphology of 04-generated protein aggregates, time course experiments were carried out and evaluated by transmission electron microscopy (TEM). After an incubation period of 4 d, worm-like Aβ42 protofibrils (Walsh, 1999) with a length of ∼30-150 nm and a diameter of -5 nm were predominantly detected in untreated aggregation reactions (Fig. 2c). […] A similar result was obtained after an incubation period of 7 d (Fig. 2c). […] At the same time, the number of oligomeric structures was reduced in 04-treated aggregation reactions (p < 1*10^-4).
We then investigated whether 04 treatment influences the assembly of small Aβ42 oligomers, which are preferentially formed at low temperature in cell-free assays (Lambert, 1998). Aβ42 monomers were incubated for 24 h at 6-8°C in the presence and absence of 04 and formation of oligomers was analyzed by TEM. In agreement with previously published data soluble fractions of untreated aggregation reactions contained large numbers of predominantly spherical Aβ42 oligomers with a diameter of 5-15 nm (Fig. 3e). […] In the presence of 04 a relatively large number of long amyloid fibrils was detected in insoluble fractions, while such structures were not observed in the absence of the chemical compound. However, in pellet fractions of untreated aggregation reactions smaller protofibrillar aggregate species were detected by TEM (Fig. 3e).
Analysis of amyloid fibrils by TEM and AFM also support the antibody binding results. While untreated Aβ42 aggregates in agreement with previously published studies (Bieschke, 2005) are straight fibrils and show a plain, highly regular surface, such a fibrillar morphology was not detected with 04 treated samples (Fig. 7e and f).

Aβ42 [2] = target: T1, Aβ42; test: Thioflavin T (ThT) seeding assay with 04-generated Aβ42 fibrils; type: biochemical; conditions: fibrils produced with equimolar or 5-fold excess 04, sonicated seeds 3 % v/v added to Aβ42 15 µM monomers
Excerpt: We also investigated whether 04-generated Aβ42 fibrils are indeed seeding-competent structures. Amyloid fibrils were produced in vitro in the presence and absence of 04 and added as seeds to an excess of unpolymerized Aβ42 monomers. The formation of β-sheet-rich amyloid fibrils was then monitored over time using a Thioflavin T (ThT) dye binding assay (LeVine, 1999). […] Thus, the β-sheet-rich Aβ42 fibrils produced in the presence of 04 are seeding-competent structures that efficiently promote amyloid fibrillogenesis.

Aβ42 [3] = target: T1, Aβ42; test: SDS-PAGE (silver staining / immunoblotting) of Aβ42 aggregation products; type: biochemical
Procedure: 2.2.3. O4 promotes the formation of SDS-stable, protease-resistant protein aggregates. To investigate whether 04 treatment influences the stability of amyloid structures, we analyzed compound-treated Aβ42 aggregation reactions after 48 h with SDS-PAGE and silver staining (Fig. 3a). In the absence of 04, aggregation products resolved to monomers (-4 kDa), small oligomers (-10-12 and 14-16 kDa), medium-size oligomers (-100-150 kDa) and large aggregates (>250 kDa) in SDS gels, supporting previously published studies that Aβ42 monomers in vitro assemble into a heterogenous mixture of low and high molecular weight aggregate species (Bitan, 2003). However, in the presence of 04 an altered distribution of SDS-stable Aβ42 aggregate species was observed.
The effect of 04 on early aggregate species was also visible when treated and untreated Aβ42 preparations containing mainly small oligomers and protofibrils were analyzed after 24 h by SDS-PAGE and immunoblotting.
To investigate whether 04 treatment influences Aβ42 aggregate formation cell culture media were also analyzed by SDS-PAGE and silver staining (Fig. 9b). In-untreated samples, a relatively large amount of Aβ42 monomers (-4 kDa) and small oligomers (-12 kDa) was detected, while in 04 treated samples the concentration of these Aβ42 species was diminished.

Aβ42 peptides [4] = target: T2, Aβ42 peptides (Homo sapiens, UniProt P05067); test: Binding to Aβ42 10-mer peptide array and short peptides; conditions: dot blot, colorimetric, n = 4
T2 construct: made in house; spotted short peptides
Procedure: (§1) 2.2.5. 04 binds preferentially to hydrophobic regions in Aβ42 peptides. To define potential 04 binding regions in Aβ42 peptides an array of 33 synthetic peptides representing the complete Aβ42 sequence was prepared (Beutling, 2008) and probed for an interaction with the chemical compound. Each synthetic peptide was composed of 10 amino acids, which overlapped in sequence with the next peptide by 9 residues.
(§2) We next investigated whether the position of hydrophobic amino acids in the Aβ42 peptide sequence influences 04 binding. Two short peptides containing aromatic residues were synthesized (A: KLVFFAE, aa 16-22 of Aβ42 and B: EFAVFLK, a scrambled version of A) and 04 binding was quantified colorimetrically.

Aβ42 peptides [5] = test: as above; conditions: 04 300 µM, 33 peptides overlapping by 9 residues, colorimetric
Procedure: as §1, §2

primary cortical neurons = test: Aβ42 toxicity in primary cortical neurons; type: cell-based; conditions: after addition of 04 to neuronal cultures
[6] = system: hippocampal rat brain slices; test: Hippocampal long-term potentiation (LTP) in brain slices, CA1 area; conditions: Aβ42 monomers and small oligomers added to slices, with 04; LTP evoked by high-frequency stimulation
Procedure: Finally, we investigated whether 04 treatment influences Aβ42-mediated impairment of hippocampal long-term potentiation (LTP) in rat brain slices (Wang, 2004; Walsh, 2002). A preparation of Aβ42 peptides containing monomers and small oligomers was added to hippocampal brain slices and LTP was measured in the CA1 area.

T1 sequence (P05067 672-713 limits assumed): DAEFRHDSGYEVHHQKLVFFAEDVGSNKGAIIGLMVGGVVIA

In the case of `O=c1cc2oc3cc(O)c(-c4ccc(O)cc4O)cc3nc-2cc1-c1ccc(O)cc1O` [Compound 04, 2,8-bis-(2,4-dihydroxyphenyl)-7-hydroxy-phenoxazin-3-one], the “morphology of amyloid fibrils (TEM and AFM)” value (Aβ42 [1]; Aβ42 15 µM, 04 75 µM, 4 d non-agitated, 37°C) is reported as “mostly bent amyloid fibrils with a rough, irregular surface”, the “number of oligomeric structures” value (Aβ42 [1]; Aβ42 15 µM, 04 150 µM, after 48 h, p < 1*10^-4) is reported as “reduced” and the “number of long amyloid fibrils” value (Aβ42 [1]; Aβ42 15 µM, 04 150 µM, after 48 h, untreated control 1.3%, p < 1*10^-5) is reported as 27%. The “length of amyloid fibrils” value (Aβ42 [1]; Aβ42 15 µM, 04 150 µM, incubation 4 d, untreated: protofibrils ∼30-150 nm) was over 500 nm, the “spherical Aβ42 oligomers in soluble fractions (TEM)” value (Aβ42 [1]; Aβ42 100 µM, 04 10-fold molar excess, 24 h at 6-8°C in F12 medium) was “only very rarely detected” and the “seeding competence of 04-generated Aβ42 fibrils (ThT fluorescence)” value (Aβ42 [2]) was “accelerate amyloid polymerization”. The “distribution of SDS-stable Aβ42 aggregate species (SDS-PAGE, silver staining)” value (Aβ42 [3]; Aβ42 15 µM, 04 1.5-150 µM, 48 h, 37°C, cell-free) was “the relative amount of medium-size, SDS-stable oligomers and large aggregates was increased, while the amount of monomers and small oligomers was decreased”, the “Aβ42 monomers and small oligomers in cell culture media (SDS-PAGE, silver staining)” value (Aβ42 [3]; SH-SY5Y culture media, Aβ42 5 µM, 04 5 µM or 25 µM, 48 h) was “diminished” and the “assembly of higher molecular weight Aβ42 aggregates (SDS-PAGE, immunoblotting)” value (Aβ42 [3]; preformed Aβ42 oligomers 110 µM, 04 30, 100 and 300 µM, 24 h) was “stimulates the assembly of SDS-stable, higher molecular weight Aβ42 aggregates in a concentration-dependent manner”. For the same compound, the “binding to peptide A (KLVFFAE, aa 16-22) and scrambled peptide B (EFAVFLK)” value (Aβ42 peptides [4]) was “readily interacts with peptide A but not with the control peptide B”, the “binding to 10-mer peptide array of the Aβ42 sequence” value (Aβ42 peptides [5]) was “most strongly interacts with Aβ42 peptides, which contain non-polar, hydrophobic amino acids” and the Aβ42-mediated cellular toxicity (primary cortical neurons) was “significantly reduced”. For the same compound, the “Aβ42 oligomer block of LTP” value [6] was “suppressed”.

Source: EP2508186A1, “Phenoxazinones or phenothiazones as inhibitors of amyloid formation” (Max-Delbrück-Centrum für Molekulare Medizin, priority 2011, dated 2012)
